Assay results published in patent US6262031A, “Method for treating pediculosis capitisinfestation” (Merck & Co., Inc., priority 2000, dated 2001).

Columns and labels:
[1] = system: Strongyloides stercoralis; conditions: cited from earlier work
Pediculosis capitis = conditions: 200 ug/kg single oral dose, 26 patients; cited from earlier work
head lice [2] = assay: Example 2: comparison of head lice treatment using orally administered ivermectin at cumulative doses of 200, 400 and 600 ug/kg; format: in vivo, human
Protocol: On Days 1, 4, 8 and 15, patients had their scalp inspected for viable nits and their hair shampooed (prior to dosing, if the day for scalp inspection was also a "dosing" day). The rinse water was filtered through a towel that enabled the number of lice (for each stage of nymphs and/or adult lice) to be recorded. An independent qualitative assessment was performed on a subset of towels. All patients were also seen on Days 5 and 9 for the assessment of clinical adverse experiences.
The primary analysis was based on treatment outcome (success or failure) on Day 15. "treatment success" is defined to mean that no live lice were observed on Day 15. "Reinfestation" corresponds to the condition where the patient, previously free of lice (including any stage nymphs and/or adult lice) on Day 8, is infested thereafter with adult lice. "Reinfestation" also corresponds to the condition where the patient, previously free of lice and nits, is infested thereafter with adult lice and first and second stage nymphs. The percent of treatment success was calculated.
(§1) Three groups of patients were treated.

[3] = system: glutamate-gated chloride ion channels; conditions: invertebrate nerve and muscle cells; cited from earlier work
[4] = Example 7: ivermectin plasma levels in fasted and fed state; format: in vivo, human; conditions: 30 mg oral; high fat meal vs fasting, three weeks apart
Onchocerca volvulus [5] = conditions: single oral dose, cited from earlier work
[6] = system: mammalian ligand-gated chloride channels; conditions: cited from earlier work
nematodes = conditions: cited from earlier work
head lice [7] = assay: Example 8: comparison of head lice treatment using orally administered ivermectin at cumulative doses of 800, 1200 and 600 ug/kg and shampoo cleaning; format: in vivo, human; conditions: for Treatment success (%) Day 15: washing shampoo the day after each dose
Protocol: On Days 1, 4 and 8, patients had their scalp inspected for nits and lice. Their hair was shampooed on Days 2, 5, 9, and 15. The rinse water was filtered through a towel that enabled the number of lice (for each stage of nymph and/or adult lice) to be recorded. An independent qualitative assessment was performed on those towels with live lice at Day 15. Clinical adverse experiences were collected at all visits.
The primary analysis was based on treatment outcome (success or failure) on Day 15. "Treatment success" is defined to mean that no live lice were observed on Day 15, or, if lice were present on Day 15, that they were the result of reinfestation. "Reinfestation" corresponds to the condition where the patient, previously free of lice (including any stage nymphs and/or adult lice) on Day 9, is infested thereafter with adult lice. Patients who were reinfested were counted as successes. The percent of treatment success was calculated.
as §1

head lice [8] = conditions: single topical application; cited from earlier work
Onchocerca volvulus [9] = conditions: cited from earlier work
head lice [10] = conditions: single oral dose 100-200 ug/kg; cited from earlier work
[11] = system: adult worm of any species of Filarioidea; conditions: causing lymphatic filariasis, tropical pulmonary eosinophilia syndrome, lymphadenitis or lymphangitis; cited from earlier work
[12] = ivermectin; cited from earlier work
[13] = cited from earlier work

## mixture containing at least 90% 5-O-demethyl-22,23-dihydroavermectin A1a and less than 10% 5-O-demethyl-25-de(1-methylpropyl)-22,23-dihyro-25-(1-methylethyl) avermectin A1a [ivermectin]
[1]
  activity against Strongyloides stercoralis: limited to the intestinal stages
Pediculosis capitis
  effectiveness against head lice: effectiveness of ivermectin 200 mcg/kg single dose against head lice
Head lice [2]; 200 ug/kg doses on Days 1, 4 and 8
  success rate, comparison of groups: highest success rate
Head lice [2]; Group 1: oral 200 ug/kg on Day 1, 29 patients
  Treatment success (%) Day 15: 52%
Head lice [2]; Group 2: oral 200 ug/kg on Days 1 and 8, 28 patients
  Treatment success (%) Day 15: 68%
Head lice [2]; Group 3: oral 200 ug/kg on Days 1, 4 and 8, 31 patients
  Treatment success (%) Day 15: 81%
[3]
  binding affinity to glutamate-gated chloride ion channels: selectively binds with high affinity
  effect of binding on cell membrane and parasite: increase in the permeability of the cell membrane to chloride ions with hyperpolarization of the nerve or muscle cell, resulting in paralysis and death of the parasite
[4]
  increase in bioavailability, fed vs fasted state: 2.5 times
Onchocerca volvulus [5]; after one month
  dermal microfilarial density: near zero
Onchocerca volvulus [5]
  maintenance of low microfilarial level: up to 12 months
[6]
  affinity for mammalian ligand-gated chloride channels: low affinity
nematodes
  activity against life-cycle stages of nematodes: active against various life-cycle stages of many but not all nematodes
Head lice [7]; Group 1: oral 400 ug/kg on Days 1 and 8, 57 patients
  Treatment success (%) Day 15: 98.2%
Head lice [7]; Group 2: oral 400 ug/kg on Days 1, 4 and 8, 60 patients
  Treatment success (%) Day 15: 100%
Head lice [7]; Group 3: oral 200 ug/kg on Days 1, 4 and 8, 57 patients
  Treatment success (%) Day 15: 100%
Head lice [7]; all three study groups, Day 15
  success rates, comparison of groups: comparable success rates
Head lice [8]
  curative effect on head lice: absolute curative effect
Onchocerca volvulus [9]; adult form
  activity against the adult form: not against the adult form
Onchocerca volvulus [9]; tissue microfilariae
  activity against tissue microfilariae: active against the tissue microfilariae
Head lice [10]
  effect on head lice infestation: significant, but not absolute, effect
[11]
  activity against adult worm of any species of Filarioidea: has not been shown to have any activity against adult worm
[12]
  plasma half-life: about 12 hours
[13]; amicrofilaremic population, mass treatment programs
  overall incidences of adverse experiences: 1%
[13]; studies of microfilaremic patients
  laboratory abnormalities: eosinophilia, liver function abnormalities and hematuria
